Values of other authors as cited in US9459262B2, “Systems and methods for determining the percentage of glycated hemoglobin” (Relia Diagnostic Systems, Inc., priority 2009, dated 2016).

conditions: not given

| Ionization constant (pKa) | SMILES |
| --- | --- |
| 8.6 | OB(O)c1ccc(Br)cc1 [4-Bromophenylboronic acid] |
| 7.1 | O=[N+]([O-])c1ccc(B(O)O)cc1 [4-Nitrophenylboronic acid] |
| 9.1 | OB(O)c1ccc(F)cc1 [4-Fluorophenylboronic acid] |
| 10.4 | CB(O)O [Methylboronic acid] |
| 9.3 | COc1ccc(B(O)O)cc1 [4-Methoxyphenylboronic acid] |
| 8.4 | O=C(O)c1ccc(B(O)O)cc1 [4-Carboxyphenylboronic acid] |
| 4.0 | OB(O)c1cccc2cccnc12 [8-Quinolinylboronic acid] |
| 9.3 | Cc1ccc(B(O)O)cc1 [4-Methylphenylboronic acid] |

Second part, the molecule before the results:

| SMILES | Ionization constant (pKa) |
| --- | --- |
| OB(O)c1cccnc1 [3-Pyridylboronic acid] | 4.0 |
| O=[N+]([O-])c1ccccc1B(O)O [2-Nitrophenylboronic acid] | 9.2 |
| OB(O)c1cc(C(F)(F)F)cc(C(F)(F)F)c1 [3,5-Bis(trifluoromethyl)phenylboronic acid] | 7.2 |
| Cc1cc(C)cc(B(O)O)c1 [3,5-Dimethylphenylboronic acid] | 9.1 |
| OB(O)c1cc(Cl)cc(Cl)c1 [3,5-Dichlorophenylboronic acid] | 7.4 |
| Cc1ccccc1B(O)O [2-Methylphenylboronic acid] | 9.7 |
| COC(=O)c1cc(B(O)O)cc([N+](=O)[O-])c1 [3-Methoxycarbonyl-5-nitrophenylboronic acid] | 6.9 |
| Cc1cccc(B(O)O)c1 [3-Methylphenylboronic acid] | 9.0 |
| COc1cccc(B(O)O)c1 [3-Methoxyphenylboronic acid] | 8.7 |

same assay, conditions: second value

| SMILES | Ionization constant (pKa) |
| --- | --- |
| OB(O)c1cccnc1 [3-Pyridylboronic acid] | 8.2 |
| OB(O)c1cccc2cccnc12 [8-Quinolinylboronic acid] | 10 |
